Earlier results in patent US20190240144A1, “EFFERVESCENT DEFERIPRONE TABLET” (priority 2016, published 2019).

Conditions: in vivo

Compound: CC(=O)N(O)CCCCCNC(=O)CCC(=O)N(O)CCCCCNC(=O)CCC(=O)N(O)CCCCCN [deferoxamine]
- half-life (t1/2): 5-10 minus
